The record followed here is US11136336B2, “Thienopyrimidones” (Boehringer Ingelheim International GmbH, priority 2019, dated 2021).

The term pIC50 denotes the negative decadic logarithm of the IC50, by convention in mol/L.

pIC50: −log10 of the molar value.

Data set [1] deals with human TRPA1 ion channel (Homo sapiens (Human), UniProt O75762). The data set is described as follows: Assay A: TRPA1 cell assay (FLIPR, AITC-induced intracellular calcium). It counts as cell-based. Conditions: HEK293 cells over-expressing human TRPA1; agonist AITC 10 μM; FLIPRtetra; read-out: hTRPA1 IC50. Here is the method:
A human HEK293 cell line over-expressing the human TRPA1 ion channel (Perkin Elmer, Product No. AX-004-PCL) was used as a test system for compound efficacy and potency. Compound activity was determined by measuring the effect of compounds on intracellular calcium concentration induced by AITC (Allylisothiocyanat) agonism in a FLIPRtetra system (Molecular Devices).
The cells were obtained as frozen cells in cryo-vials and stored until use at −150° C. Cells were grown in culture medium (MEM/EBSS medium with 10% FCS and 0.4 mg/ML Geneticin). […] For sub-culturing cells were detached from flasks by Versene. At the day before the assay, cells were detached, washed twice with medium (MEM/EBSS medium with 10% FCS) and 20000 cells in 20p/well were seeded to Poly D-Lysin biocoated 384-well plates (black, clear bottom, Cat. 356697) from Corning. Plates were incubated for 24 hours at 37° C./5% CO2 before use in the assay.
The test compounds were dissolved in 100% DMSO at a concentration of 10 mM and in a first step diluted in DMSO to a concentration of 5 mM, followed by serial dilution steps in 100% DMSO. Dilution factor and number of dilution steps may vary according to needs. Typically 8 different concentrations by 1:5 dilutions were prepared, further intermediate dilutions (1:20) of the substances were carried out with HBSS/HEPES buffer (1×HEPES, Cat.14065 from Gibco, 20 mM HEPES, Cat. 83264 from SIGMA, 0.1% BSA Cat.11926 from Invitrogen, pH 7,4
At the assay day cells were washed 3× with assay puffer, 20 μL buffer remained in the wells after washing. 10 μL Ca6 kit (Cat.R8191 MolecularDevices) loading buffer in HBSS/HEPES was added to the cells and the plates were incubated with lid for 120 minutes at 37°/5% CO2. 10 μL of compound or controls in HBSS/HEPES buffer/5% DMSO from the intermediate dilution plate were carefully added to the wells. […] Finally 10 μL of the agonist AITC 50 μM dissolved in HBSS/HEPES buffer/0.05% DMSO (final concentration 10 μM) was added to the wells followed by an additional read on the FLIPRtetra device for 10 minutes. The area under the signal curve (AUC) after AITC addition was used for IC50/% inhibition calculations
Each assay microtiter plate contained wells with vehicle (1% DMSO) controls instead of compound as controls for AITC induced luminescence (100% CTL; high controls) and wells with vehicle controls without AITC as controls for non-specific changes in luminescence (0% CTL; low controls).
The analysis of the data was performed by the calculation of the area under signal curve of the individual wells. Based on this values the % value for the measurement of each substance concentration was calculated (AUC(sample)−AUC(low))*100/(AUC(high)−AUC(low)) using MegaLab software (in house development). The IC50 values were calculated from the % control values using MegaLab software. Calculation: [y=(ad)/(1+(x/c)^b)+d], a=low value, d=high value; x=conc M; c=IC50 M; b=hill; y=% ctrl
In general terms: Calcium assays in cells follow changes in intracellular calcium, usually with a dye or a luminescent sensor.

Data set [2] can be described thus: Assay C: Hepatocyte clearance. The format is in vitro ADME. Conditions: human hepatocyte suspension, 1 μM test compound, six hours. Here is the method:
Assay C: Hepatocyte Clearance
The metabolic degradation of the test compound is assayed in a hepatocyte suspension. Hepatocytes (cryopreserved) are incubated in. Dulbecco's modified eagle medium (supplemented with 3.5 μg glucagon/500 mL, 2.5 mg insulin/500 mL and 3.75 mg/500 mL hydrocortison) containing 5% or 50% species serum.
Following a 30 min preincubation in an incubator (37° C., 10% CO2) 5 μl of test compound solution (80 μM; from 2 mM in DMSO stock solution diluted 1:25 with medium) are added into 395 μl hepatocyte suspension (cell density in the range 0.25-5 Mio cells/mL depending on the species, typically 1 Mio cells/mL; final concentration of test compound 1 μM, final DMSO concentration 0.05%).
The cells are incubated for six hours (incubator, orbital shaker) and samples (25 μl) are taken at 0, 0.5, 1, 2, 4 and 6 hours. Samples are transferred into acetonitrile and pelleted by centrifugation (5 min). The supernatant is transferred to a new 96-deepwell plate, evaporated under nitrogen and resuspended.
Decline of parent compound is analyzed by HPLC-MS/MS
CLint is calculated as follows CL_[…]=Dose/AUC=(C0/CD)/(AUD+clast/k)×1000/60. C0: initial concentration in the incubation [μM], CD: cell density of vital cells [10e6cells/mL], AUD: area under the data [μM×h], clast: concentration of last data point [μM], k: slope of the regression line for parent decline [h−1].
The calculated in vitro hepatic intrinsic clearance can be scaled up to the intrinsic in vivo hepatic Clearance and used to predict hepatic in vivo blood clearance (CL) by the use of a liver model (well stirred model).

Data set [3] in a line: Assay B: Microsomal clearance. The format is in vitro ADME. Conditions: pooled human liver microsomes, 1 mg/ml protein, 1 μM test compound, 37° C. Here is the method: Assay B: Microsomal Clearance:
The metabolic degradation of the test compound is assayed at 37° C. with pooled liver microsomes. The final incubation volume of 100 μl per time point contains TRIS buffer pH 7.6 at RT (0.1 M), magnesium chloride (5 mM), microsomal protein (1 mg/ml) and the test compound at a final concentration of 1 μM.
Following a short preincubation period at 37° C., the reactions are initiated by addition of beta-nicotinamide adenine dinucleotide phosphate, reduced form (NADPH, 1 mM) and terminated by transferring an aliquot into solvent after different time points (0, 5, 15, 30, 60 min). Additionally, the NADPH-independent degradation is monitored in incubations without NADPH, terminated at the last time point. The [%] remaining test compound after NADPH independent incubation is reflected by the parameter c(control) (metabolic stability). The quenched incubations are pelleted by centrifugation (10000 g, 5 min).
An aliquot of the supernatant is assayed by LC-MS/MS for the amount of parent compound. The half-life (t1/2 INVITRO) is determined by the slope of the semilogarithmic plot of the concentration-time profile.
In general terms: Liver microsomes are a subcellular fraction often used to study metabolism.

human TRPA1 ion channel, sequence (O75762 whole entry): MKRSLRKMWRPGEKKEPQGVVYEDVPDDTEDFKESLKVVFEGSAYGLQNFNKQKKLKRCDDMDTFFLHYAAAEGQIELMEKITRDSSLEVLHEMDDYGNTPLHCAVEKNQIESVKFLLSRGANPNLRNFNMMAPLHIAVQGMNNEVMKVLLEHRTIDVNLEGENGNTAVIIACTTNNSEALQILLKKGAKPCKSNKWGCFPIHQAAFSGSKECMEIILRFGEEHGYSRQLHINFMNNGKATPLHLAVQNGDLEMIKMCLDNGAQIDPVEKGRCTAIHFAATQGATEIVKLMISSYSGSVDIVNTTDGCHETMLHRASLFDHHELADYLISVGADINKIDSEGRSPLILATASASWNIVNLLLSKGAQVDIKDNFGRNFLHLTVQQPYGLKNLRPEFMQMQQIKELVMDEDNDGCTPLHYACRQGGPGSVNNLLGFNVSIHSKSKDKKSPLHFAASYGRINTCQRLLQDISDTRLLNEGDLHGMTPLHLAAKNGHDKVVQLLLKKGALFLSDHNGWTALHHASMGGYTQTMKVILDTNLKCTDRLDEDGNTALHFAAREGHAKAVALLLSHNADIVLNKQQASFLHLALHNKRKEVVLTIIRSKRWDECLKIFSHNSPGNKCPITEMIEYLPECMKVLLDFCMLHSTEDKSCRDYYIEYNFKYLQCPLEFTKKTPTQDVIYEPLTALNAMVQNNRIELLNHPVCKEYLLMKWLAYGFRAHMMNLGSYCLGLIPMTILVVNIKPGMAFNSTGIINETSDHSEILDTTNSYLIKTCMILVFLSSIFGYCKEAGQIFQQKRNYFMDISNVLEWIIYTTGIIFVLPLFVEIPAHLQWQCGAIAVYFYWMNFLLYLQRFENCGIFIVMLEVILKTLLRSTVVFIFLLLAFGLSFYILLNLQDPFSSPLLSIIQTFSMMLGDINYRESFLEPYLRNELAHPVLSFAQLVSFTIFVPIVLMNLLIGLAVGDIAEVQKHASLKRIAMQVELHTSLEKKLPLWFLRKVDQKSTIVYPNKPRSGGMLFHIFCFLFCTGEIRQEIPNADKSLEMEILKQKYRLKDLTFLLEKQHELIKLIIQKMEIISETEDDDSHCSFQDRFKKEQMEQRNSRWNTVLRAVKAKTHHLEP

Take `Cc1c(C(N)=O)sc2ncn(Cc3nc(C[C@H](O)c4ccc(Cl)cc4)no3)c(=O)c12` [Example 1, 3-({3-[(2S)-2-(4-chlorophenyl)-2-hydroxyethyl]-1,2,4-oxadiazol-5-yl}methyl)-5-methyl-4-oxo-3H,4H-thieno[2,3-d]pyrimidine-6-carboxamide]: the pIC50 in data set [1] is 7.89. Besides, the “human Hepatocytes [% Qh]” value in data set [2] is recorded as 25 % Qh. The “human LM [% Qh]” value in data set [3] was determined as 29 % Qh.
Taken in the same sequence, the figures for `Cc1ccc([C@@H](O)Cc2noc(Cn3cnc4sc(C(N)=O)c(C)c4c3=O)n2)cc1` [Example 2] were 7.70, 29 % Qh and below 23 % Qh.
Taken in the same sequence, the figures for `Cc1c(C(N)=O)sc2ncn(Cc3nc(C[C@H](O)c4cc5ccccc5o4)no3)c(=O)c12` [Example 3] were 7.72, 36 % Qh and below 23 % Qh.
Take `Cc1c(C(N)=O)sc2ncn(Cc3nc(C[C@H](O)c4ccc(F)cc4)no3)c(=O)c12` [Example 4]: the pIC50 in data set [1] was 7.48. The “human Hepatocytes [% Qh]” value in data set [2] came out at 29 % Qh. For the same compound, in data set [3], the “human LM [% Qh]” value is on record as below 23 % Qh.
For `Cc1c(C(N)=O)sc2ncn(Cc3nc(C[C@H](O)c4ccc(F)c(F)c4)no3)c(=O)c12` [Example 5], in that order: 7.32, 37 % Qh and below 23 % Qh.
For `Cc1c(C(N)=O)sc2ncn(Cc3nc(C[C@H](O)c4cc(F)cc(F)c4)no3)c(=O)c12` [Example 6], in that order: 7.32, 23 % Qh and below 23 % Qh.
With `Cc1c(C(N)=O)sc2ncn(Cc3nc(C[C@H](O)c4ccc5c(c4)OC(F)(F)O5)no3)c(=O)c12` [Example 7], the negative logarithm of the IC50 (pIC50) in data set [1] was 7.47. Moreover, in data set [2], the “human Hepatocytes [% Qh]” value came out at 39 % Qh. In addition, in data set [3], the “human LM [% Qh]” value was 23 % Qh.
For `Cc1c(C(N)=O)sc2ncn(Cc3nc(C[C@H](O)c4ccc5c(c4)OCO5)no3)c(=O)c12` [Example 8], in that order: 7.25, 24 % Qh and below 23 % Qh.
With `CNC(=O)c1sc2ncn(Cc3nc(C[C@H](O)c4ccc5c(c4)OCO5)no3)c(=O)c2c1C` [Example 9], in data set [1], the pIC50 is 7.11. Besides, the “human Hepatocytes [% Qh]” value in data set [2] is listed as 24 % Qh. Further, in data set [3], the “human LM [% Qh]” value amounted to 29 % Qh.
As for `CNC(=O)c1sc2ncn(Cc3nc(C[C@H](O)c4ccc(F)cc4)no3)c(=O)c2c1C` [Example 10], the “human Hepatocytes [% Qh]” value in data set [2] amounted to 25 % Qh. In addition, the “human LM [% Qh]” value in data set [3] is given as below 23 % Qh.
Turning to `CNC(=O)c1sc2ncn(Cc3nc(C[C@H](O)c4ccc(Cl)cc4)no3)c(=O)c2c1C` [Example 11], in data set [1], the pIC50 was 8.00. For the same compound, the “human Hepatocytes [% Qh]” value in data set [2] came out at 29 % Qh. Also, the “human LM [% Qh]” value in data set [3] was below 23 % Qh.
Taken in the same sequence, the figures for `Cc1c(C(=O)NCC(F)F)sc2ncn(Cc3nc(C[C@H](O)c4ccc(Cl)cc4)no3)c(=O)c12` [Example 12] were 7.82, 36 % Qh and 24 % Qh.
Regarding `Cc1c(C(=O)NCC(C)(C)O)sc2ncn(Cc3nc(C[C@H](O)c4ccc(Cl)cc4)no3)c(=O)c12` [Example 13], the negative-log IC50 (pIC50) in data set [1] was 7.43. Also, the “human Hepatocytes [% Qh]” value in data set [2] came to 18 % Qh. Moreover, the “human LM [% Qh]” value in data set [3] is below 23 % Qh.
On to `CNC(=O)c1sc2ncn(Cc3nc(C[C@H](O)c4ccc(F)c(F)c4)no3)c(=O)c2c1C` [Example 14], for which the negative-log IC50 (pIC50) in data set [1] was 7.48. In addition, the “human Hepatocytes [% Qh]” value in data set [2] is recorded as 24 % Qh. For the same compound, the “human LM [% Qh]” value in data set [3] is recorded as below 23 % Qh.
Taken in the same sequence, the figures for `O=C1NCCc2c1sc1ncn(Cc3nc(C[C@H](O)c4ccc(Cl)cc4)no3)c(=O)c21` [Example 15] were 8.05, 31 % Qh and below 23 % Qh.
For the compound `NC(=O)c1sc2ncn(Cc3nc(C[C@H](O)c4ccc(Cl)cc4)no3)c(=O)c2c1Cl` [Example 16], the negative-log IC50 (pIC50) in data set [1] is 7.80. Besides, in data set [2], the “human Hepatocytes [% Qh]” value is on record as 39 % Qh. Also, the “human LM [% Qh]” value in data set [3] is on record as below 23 % Qh.
